Measurements taken from patent US20240327463A1, “ANTIBACTERIAL PRODUCTS” (priority 2017, published 2024).
Values after ≈ are worked out from the molar mass of the structure shown. Bridge positions count the residues as written; N and C are the ends. Square brackets hold non-standard residues; d marks the D form. Peptide text beside a SMILES is read from it. ξ: configuration not given here. dNMeF = CN[C@H](Cc1ccccc1)C(=O)O; Ile(3ξ) = CCC(C)[C@H](N)C(=O)O; Chg = N[C@H](C(=O)O)C1CCCCC1; Nva = CCC[C@H](N)C(=O)O

Each compound was assayed on MRSA ATCC 33591. Settings: ATCC 33591.
Experimental: For MIC testing all peptides were dissolved in DMSO (according to the method of L. L. Ling, et al., Nature 2015, 517, 455-459). Bacteria were grown on Mueller Hinton broth (oxoid). All incubations were at 37° C. Dilutions were carried out using Mueller Hinton. 100 μl of autoclaved Mueller Hinton broth was added to wells 2-12 on a 96-well plate. 200 μl of the peptide was added to well one at a concentration of 512 μg/ml. 100 μl of peptide in well one was taken up and pipetted into well two. The mixture was then mixed via pipetting before 100 μl was taken up and pipetted into well three. This process was repeated up to well 11. […] This was repeated three times. The 96-well plates were then incubated for 24 hours. The MIC was determined to be the lowest concentration at which there was no growth visible.

First: CC[C@@H](C)[C@@H](NC(=O)[C@@H](CCC(N)=O)NC(=O)[C@H](CO)NC(=O)[C@@H](NC(=O)[C@@H](Cc1ccccc1)NC)[C@@H](C)CC)C(=O)N[C@H](C(=O)N[C@@H](CO)C(=O)N[C@H]1C(=O)N[C@@H](C)C(=O)N[C@H](C)C(=O)N[C@@H]([C@@H](C)CC)C(=O)O[C@H]1C)[C@@H](C)CC [Compound 15]
Second: CC[C@@H](C)[C@@H](NC(=O)[C@@H](CCC(N)=O)NC(=O)[C@H](CO)NC(=O)[C@@H](NC(=O)[C@@H](Cc1ccccc1)NC)[C@@H](C)CC)C(=O)N[C@H](C(=O)N[C@@H](CO)C(=O)N[C@H]1C(=O)N[C@@H](C)C(=O)NCC(=O)N[C@@H]([C@@H](C)CC)C(=O)O[C@H]1C)[C@@H](C)CC [Compound 16, Gly10-teixobactin]
The “MIC (MRSA*)” value of the first is 16-fold higher: 32 µg/mL (≈ 27.6 µM) for the first, 2 µg/mL (≈ 1.75 µM) for the second.

Compared with CC[C@@H](C)[C@@H](NC(=O)[C@@H](CCC(N)=O)NC(=O)[C@H](C)NC(=O)[C@@H](NC(=O)[C@@H](Cc1ccccc1)NC)[C@@H](C)CC)C(=O)N[C@H](C(=O)N[C@@H](CO)C(=O)N[C@H]1C(=O)N[C@@H](C)C(=O)N[C@@H](CCCNC(=N)N)C(=O)N[C@@H]([C@@H](C)CC)C(=O)O[C@H]1C)[C@@H](C)CC [Compound 9] (H-[dNMeF]IA[dQ][dI]IS[dT]ARI; ester 8-C), CC[C@@H](C)[C@@H](NC(=O)[C@@H](C)NC(=O)[C@H](CO)NC(=O)[C@@H](NC(=O)[C@@H](Cc1ccccc1)NC)[C@@H](C)CC)C(=O)N[C@H](C(=O)N[C@@H](CO)C(=O)N[C@H]1C(=O)N[C@@H](C)C(=O)N[C@@H](CCCNC(=N)N)C(=O)N[C@@H]([C@@H](C)CC)C(=O)O[C@H]1C)[C@@H](C)CC [Compound 10] (H-[dNMeF]IS[dA][dI]IS[dT]ARI; ester 8-C) is higher in “MIC (MRSA*)” value: 1 to 2 µg/mL for the first, 2 to 4 µg/mL for the second.

Going from CC[C@@H](C)[C@@H](NC(=O)[C@@H](CCCNC(=N)N)NC(=O)[C@H](CCCNC(=N)N)NC(=O)[C@@H](NC(=O)[C@@H](Cc1ccccc1)NC)[C@@H](C)CC)C(=O)N[C@H](C(=O)N[C@@H](CO)C(=O)N[C@H]1C(=O)N[C@@H](C)C(=O)N[C@@H](C2CCCCC2)C(=O)N[C@@H]([C@@H](C)CC)C(=O)O[C@H]1C)[C@@H](C)CC [Compound 40, Arg3-D-Arg4-Chg10-teixobactin] (H-[dNMeF]IR[dR][dI]IS[dT]A[Chg]I; ester 8-C) to CC[C@@H](C)[C@@H](NC(=O)[C@@H](CCCNC(=N)N)NC(=O)[C@H](CO)NC(=O)[C@@H](NC(=O)[C@@H](Cc1ccccc1)NC)[C@@H](C)CC)C(=O)N[C@H](C(=O)N[C@@H](CO)C(=O)N[C@H]1C(=O)N[C@@H](CCCNC(=N)N)C(=O)N[C@@H](C2CCCCC2)C(=O)N[C@@H]([C@@H](C)CC)C(=O)O[C@H]1C)[C@@H](C)CC [Compound 42, D-Arg4-Arg9-Chg10-teixobactin] (H-[dNMeF]IS[dR][dI]IS[dT]R[Chg]I; ester 8-C), the “MIC (MRSA)” value falls from 1 µg/mL (≈ 0.755 µM) to 0.5 µg/mL (≈ 0.373 µM) (2-fold).

First: CC[C@@H](C)[C@@H](NC(=O)[C@@H](CCC(N)=O)NC(=O)[C@H](CCCNC(=N)N)NC(=O)[C@@H](NC(=O)[C@@H](Cc1ccccc1)NC)[C@@H](C)CC)C(=O)N[C@H](C(=O)N[C@@H](CO)C(=O)N[C@H]1C(=O)N[C@@H](CCCNC(=N)N)C(=O)N[C@@H](C2CCCCC2)C(=O)N[C@@H]([C@@H](C)CC)C(=O)O[C@H]1C)[C@@H](C)CC [Compound 41, Arg3-Arg9-Chg10-teixobactin] (H-[dNMeF]IR[dQ][dI]IS[dT]R[Chg]I; ester 8-C)
Second: CC[C@@H](C)[C@@H](NC(=O)[C@@H](CCCNC(=N)N)NC(=O)[C@H](CCCNC(=N)N)NC(=O)[C@@H](NC(=O)[C@@H](Cc1ccccc1)NC)[C@@H](C)CC)C(=O)N[C@H](C(=O)N[C@@H](CO)C(=O)N[C@H]1C(=O)N[C@@H](CCCNC(=N)N)C(=O)N[C@@H](C2CCCCC2)C(=O)N[C@@H]([C@@H](C)CC)C(=O)O[C@H]1C)[C@@H](C)CC [Compound 43, Arg3-D-Arg4-Arg9-Chg10-teixobactin] (H-[dNMeF]IR[dR][dI]IS[dT]R[Chg]I; ester 8-C)
The “MIC (MRSA)” value of the first is 130-fold lower: 0.5 µg/mL (≈ 0.362 µM) for the first, 64 µg/mL (≈ 45.4 µM) for the second.

First: CC[C@@H](C)[C@@H](NC(=O)[C@@H](CCC(N)=O)NC(=O)[C@H](CO)NC(=O)[C@@H](NC(=O)[C@@H](Cc1ccccc1)NC)[C@@H](C)CC)C(=O)N[C@H](C(=O)N[C@@H](CO)C(=O)N[C@H]1C(=O)N[C@@H](CCCNC(=N)N)C(=O)N[C@@H](C2CCCCC2)C(=O)N[C@@H]([C@@H](C)CC)C(=O)O[C@H]1C)[C@@H](C)CC [Compound 39, Arg9-Chg10-teixobactin]
Second: CC[C@@H](C)[C@@H](NC(=O)[C@@H](CCC(N)=O)NC(=O)[C@H](CO)NC(=O)[C@@H](NC(=O)[C@@H](Cc1ccccc1)NC)[C@@H](C)CC)C(=O)N[C@H](C(=O)N[C@@H](CO)C(=O)N[C@H]1C(=O)N[C@@H](C)C(=O)N[C@@H](C2CCCCC2)C(=O)N[C@@H]([C@@H](C)CC)C(=O)O[C@H]1C)[C@@H](C)CC [Compound 36, Chg10-teixobactin]
The “MIC (MRSA)” value of the first is 4-fold higher: 1 µg/mL (≈ 0.762 µM) for the first, 0.25 µg/mL (≈ 0.204 µM) for the second.

Compared with CCC[C@@H]1NC(=O)[C@H](CCCNC(=N)N)NC(=O)[C@H](NC(=O)[C@H](CO)NC(=O)[C@@H](NC(=O)[C@H](NC(=O)[C@@H](CCC(N)=O)NC(=O)[C@H](CCCNC(=N)N)NC(=O)[C@@H](NC(=O)[C@@H](Cc2ccccc2)NC)[C@@H](C)CC)[C@H](C)CC)[C@@H](C)CC)[C@H](C)OC(=O)[C@H]([C@@H](C)CC)NC1=O [Compound 49, Arg3-Arg9-Nva10-teixobactin] (H-[dNMeF]IR[dQ][dI]IS[dT]R[Nva]I; ester 8-C), CCC[C@@H]1NC(=O)[C@H](CCCNC(=N)N)NC(=O)[C@H](NC(=O)[C@H](CO)NC(=O)[C@@H](NC(=O)[C@H](NC(=O)[C@@H](CCCNC(=N)N)NC(=O)[C@H](CCCNC(=N)N)NC(=O)[C@@H](NC(=O)[C@@H](Cc2ccccc2)NC)[C@@H](C)CC)[C@H](C)CC)[C@@H](C)CC)[C@H](C)OC(=O)[C@H]([C@@H](C)CC)NC1=O [Compound 51, Arg3-D-Arg4-Arg9-Nva10-teixobactin] (H-[dNMeF]IR[dR][dI]IS[dT]R[Nva]I; ester 8-C) is 130-fold higher in “MIC (MRSA)” value: 0.5 µg/mL (≈ 0.373 µM) for the first, 64 µg/mL (≈ 46.7 µM) for the second.

First: CC[C@@H](C)[C@@H](NC(=O)[C@@H](CCCNC(=N)N)NC(=O)[C@H](CO)NC(=O)[C@@H](NC(=O)[C@@H](Cc1ccccc1)NC)[C@@H](C)CC)C(=O)N[C@H](C(=O)N[C@@H](CO)C(=O)N[C@H]1C(=O)N[C@@H](C)C(=O)N[C@@H](Cc2ccccc2)C(=O)N[C@@H]([C@@H](C)CC)C(=O)O[C@H]1C)[C@@H](C)CC [Compound 52, D-Arg4-Phe10-teixobactin]
Second: CCC[C@@H]1NC(=O)[C@H](C)NC(=O)[C@H](NC(=O)[C@H](CO)NC(=O)[C@@H](NC(=O)[C@H](NC(=O)[C@@H](CCCNC(=N)N)NC(=O)[C@H](CO)NC(=O)[C@@H](NC(=O)[C@@H](Cc2ccccc2)NC)[C@@H](C)CC)[C@H](C)CC)[C@@H](C)CC)[C@H](C)OC(=O)[C@H]([C@@H](C)CC)NC1=O [Compound 46, D-Arg4-Nva10-teixobactin]
The “MIC (MRSA)” value of the first is 8-fold higher: 2 µg/mL (≈ 1.58 µM) for the first, 0.25 µg/mL (≈ 0.206 µM) for the second.

First: CCC(C)[C@@H]1NC(=O)[C@H](C)NC(=O)[C@H](NC(=O)[C@H](CO)NC(=O)[C@@H](NC(=O)[C@H](NC(=O)[C@@H](CCCNC(=N)N)NC(=O)[C@H](CCCNC(=N)N)NC(=O)[C@@H](NC(=O)[C@@H](Cc2ccccc2)NC)[C@@H](C)CC)[C@H](C)CC)[C@@H](C)CC)[C@H](C)OC(=O)[C@H]([C@@H](C)CC)NC1=O (stereo partly drawn) [Compound 35, Arg3-D-Arg4-Ile10-teixobactin] (H-[dNMeF]IR[dR][dI]IS[dT]A[Ile(3ξ)]I; ester 8-C)
Second: CCC[C@@H]1NC(=O)[C@H](C)NC(=O)[C@H](NC(=O)[C@H](CO)NC(=O)[C@@H](NC(=O)[C@H](NC(=O)[C@@H](CCC(N)=O)NC(=O)[C@H](CCCNC(=N)N)NC(=O)[C@@H](NC(=O)[C@@H](Cc2ccccc2)NC)[C@@H](C)CC)[C@H](C)CC)[C@@H](C)CC)[C@H](C)OC(=O)[C@H]([C@@H](C)CC)NC1=O [Compound 45, Arg3-Nva10-teixobactin] (H-[dNMeF]IR[dQ][dI]IS[dT]A[Nva]I; ester 8-C)
The “MIC (MRSA)” value of the first is 2-fold lower: 0.5 µg/mL (≈ 0.385 µM) for the first, 1 µg/mL (≈ 0.796 µM) for the second.

With CCC[C@@H]1NC(=O)[C@H](CCCNC(=N)N)NC(=O)[C@H](NC(=O)[C@H](CO)NC(=O)[C@@H](NC(=O)[C@H](NC(=O)[C@@H](CCC(N)=O)NC(=O)[C@H](CO)NC(=O)[C@@H](NC(=O)[C@@H](Cc2ccccc2)NC)[C@@H](C)CC)[C@H](C)CC)[C@@H](C)CC)[C@H](C)OC(=O)[C@H]([C@@H](C)CC)NC1=O [Compound 47, Arg9-Nva10-teixobactin] (H-[dNMeF]IS[dQ][dI]IS[dT]R[Nva]I; ester 8-C) the “MIC (MRSA)” value was 0.5 µg/mL (≈ 0.393 µM).

For CC[C@@H](C)[C@@H](NC(=O)[C@@H](CCC(N)=O)NC(=O)[C@H](CO)NC(=O)[C@H](C)NC(=O)[C@@H](Cc1ccccc1)NC)C(=O)N[C@H](C(=O)N[C@@H](CO)C(=O)N[C@H]1C(=O)N[C@@H](C)C(=O)N[C@@H](CCCNC(=N)N)C(=O)N[C@@H]([C@@H](C)CC)C(=O)O[C@H]1C)[C@@H](C)CC [Compound 8] (H-[dNMeF]AS[dQ][dI]IS[dT]ARI; ester 8-C), the “MIC (MRSA*)” value was greater than 128 µg/mL.
CC[C@@H](C)[C@@H](NC(=O)[C@@H](CCC(N)=O)NC(=O)[C@H](CO)NC(=O)[C@@H](NC(=O)[C@@H](Cc1ccccc1)NC)[C@@H](C)CC)C(=O)N[C@@H](C)C(=O)N[C@@H](CO)C(=O)N[C@H]1C(=O)N[C@@H](C)C(=O)N[C@@H](CCCNC(=N)N)C(=O)N[C@@H]([C@@H](C)CC)C(=O)O[C@H]1C [Compound 12] (H-[dNMeF]IS[dQ][dI]AS[dT]ARI; ester 8-C) was tested, and the “MIC (MRSA*)” value was greater than 128 µg/mL.

In the case of CCC[C@@H]1NC(=O)[C@H](C)NC(=O)[C@H](NC(=O)[C@H](CO)NC(=O)[C@@H](NC(=O)[C@H](NC(=O)[C@@H](CCCNC(=N)N)NC(=O)[C@H](CCCNC(=N)N)NC(=O)[C@@H](NC(=O)[C@@H](Cc2ccccc2)NC)[C@@H](C)CC)[C@H](C)CC)[C@@H](C)CC)[C@H](C)OC(=O)[C@H]([C@@H](C)CC)NC1=O [Compound 48, Arg3-D-Arg4-Nva10-teixobactin] (H-[dNMeF]IR[dR][dI]IS[dT]A[Nva]I; ester 8-C), the “MIC (MRSA)” value is reported as greater than 64 µg/mL.
